Laboratory results from paper PMC7787666, “BUB-1 targets PP2A:B56 to regulate chromosome congression during meiosis I in C. elegans oocytes” (eLife, 2020).
Where no end group is shown, it is not given here. [ ]: non-standard residue; d: D form. The star is where a group is joined. FITC = O=C1OC2(c3ccc(O)cc3Oc3cc(O)ccc32)c2ccc(NC(=S)*)cc21; pS = N[C@@H](COP(=O)(O)O)C(=O)O; Ahx = NCCCCCC(=O)O

Key:
[1] = test system: purified recombinant PPTR-2; test: Fluorescence polarisation, LxxIxE motif-containing FITC-labelled synthetic peptide with purified recombinant PPTR-2; assay type: binding, C. elegans; settings: FITC-labelled peptide 0.5–1 µM, increasing PPTR-2 (1:2 serial dilution), FP buffer 50 mM NaP pH 7.5, 150 mM NaCl, 0.5 mM TCEP, 30 min, PheraStar FS, technical triplicates, representative experiment; for PPTR-2 interaction (binding) assessed using fluorescence polarisation: Figure 4C
Method: Figure 4. B56α^PPTR-1 and B56γ^PPTR-2 are targeted through a LxxIxE motif in BUB-1. (A) C. elegans BUB-1 LxxIxE SLiM is shown aligned with BubR1 and Repoman short linear motifs (SLiMs). The only change within the LxxIxE sequence itself is the presence of a valine instead of isoleucine, which still fits within the consensus ([Wang et al., 2016]). The alignment was performed using Clustal Omega and visualised with Jalview ([Waterhouse et al., 2009]). (B) Disorder prediction of full-length BUB-1 was done using IUPRED2A ([Erdős and Dosztányi, 2020]). All prevuously characterised BUB-1 domains fall within ordered regions < 0.5. The putative SLiM is in a disordered region (IUPRED score ~0.8). (C) PPTR-2 interaction with a LxxIxE motif-containing synthetic peptide was assessed using fluorescence polarisation. Increasing amounts of purified recombinant PPTR-2 were incubated with FITC-labelled wild-type or L282A,V285A mutant peptide. […] (D) Schematic showing the LxxIxE motif in BUB-1 and the BUB-1^L282A,V285A mutant. […] (F) PPTR-1::GFP levels were measured in wild-type and BUB-1^L282A,V285A oocytes throughout meiosis I and the mean ± s.e.m is shown in the graph. […] (H) Midbivalent/central spindle PPTR-2::GFP levels were measured in wild-type and BUB-1^L282A,V285A oocytes throughout meiosis I, and the mean ± s.e.m is shown in the graph. […] (J) Representative, spindle-wide (20 pixels) line profiles are shown for wild-type (top) and BUB-1^L282A,V285A mutant (bottom) measured in prometaphase I (40 s before metaphase I). […] (K) The angle of bivalents 80 s before segregation in meiosis I relative to the average angle of the spindle was measured in wild-type and in BUB-1^L282A,V285A oocytes. […] N represents number of oocytes and n number of bivalents measured. p value shown in the figure was obtained using a Mann–Whitney test. (L) Distance of bivalents 80 s before segregation in meiosis I relative to the centre of the spindle was measured in wild-type and BUB-1^L282A,V285A oocytes. […]

[2] = test system: phospho Ser 283-specific BUB-1 antibody; test: Peptide competition of anti-phospho Ser 283 BUB-1 antibody in immunofluorescence; settings: antibody dilutions 1:1,000 and 1:10,000 incubated with 1 µM and 10 µM peptide; fixed oocytes
Method: The antibody was generated by Moravian Biotec by immunising rabbits with the following peptide: RRRHL(pS)PVSEKTC. Serum was adsorbed with a non-phosphorylated peptide (RRRHLSPVSEKTC) followed by affinity purification with the antigenic, phosphorylated peptide. Different fractions were tested in immunofluorescence by incubating different dilutions (1:1,000 and 1:10,000) with 1 µM and 10 µM of either non-phosphorylated or phosphorylated peptide.
Worms were placed on 4 µl of M9 worm buffer in a poly-D-lysine (Sigma, P1024)-coated slide, and a […] coverslip was gently laid on top. Once the worms extruded the embryos, slides were placed on a metal block on dry ice for >10 min. The coverslip was then flicked off with a scalpel blade, and the samples were fixed in methanol at […] for 30 min. After blocking in phosphate-buffered saline (PBS) buffer plus 3% bovine serum albumin and 0.1% Triton X-100 (AbDil), samples were incubated overnight at 4°C with anti-BUB-1 ([Desai et al., 2003]) and anti-tubulin (1/400, clone DM1α, Sigma–Aldrich) in AbDil. After three washes with PBS plus 0.1% Tween, secondary antibodies were added at 1/1000 (goat anti-mouse and goat anti-rabbit conjugated to Alexa Fluor 488, Alexa Fluor 594, Thermo Scientific). […]

Substance	competition of antibody signal in immunofluorescence [2]	PPTR-2 interaction (binding) assessed using fluorescence polarisation [1]	also measured
FITC-Ahx-NPRRRHLphSPVSEKTVDDEEE [pBUB-1, FITC-labelled BUB-1 LxxIxE peptide phosphorylated at serine 283]	–	–	relative affinity for recombinant B56γ^PPTR-2, phosphorylated versus non-phosphorylated peptide ([1]; Figure 5F): higher affinity than non-phosphorylated LxxIxE peptide
RRRHLSPVSEKTC	Only the phosphorylated peptide compited out the signal	–	–
RRRHL[pS]PVSEKTC	Only the phosphorylated peptide compited out the signal	–	–
{FITC-Ahx}-NPRRRHASPASEKTVDDEEE [LAVA, FITC-labelled L282A,V285A mutant BUB-1 peptide]	–	this binding is abolished	–
{FITC-Ahx}-NPRRRHLSPVSEKTVDDEEE [BUB-1, FITC-labelled wild-type BUB-1 LxxIxE motif-containing synthetic peptide]	–	binds to purified recombinant PPTR-2	–
